“Also recorded” adds a separate entry of the source.

In one assay the target is T1, apo-PGRMC1 (Homo sapiens, UniProt O00264).
T1 construct: human PGRMC1 intracellular domain residues 43-195; GST (N, cleaved yes); made in house; host or cells: E. coli BL21 (DE3)
Nature of the assay: ITC binding to apo-PGRMC1. The following applies: apo-monomer form. An excerpt: (§1) Bacterial expression vectors pGEX-PGRMC1 (human PGRMC1 intracellular domain residues 43-195) and mammalian FLAG-tagged expression vector pCMV-FLAG-PGRMC1 (full-length) were constructed as described previously. Expression vectors for PGRMC1 point mutants were generated by site-directed mutagenesis with PCR. For construction of HMGB1 expression vector, human HMGB1 full-length cDNA was cloned from cDNA library of HCT116 cells using the primers (Forward: 5′-[…]-3′, Reverse: 5′-[…]-[…]-3′), digested with Bam HI and Sal I, and then ligated into pGEX6P1.
Expression vectors (pGEX-PGRMC1 (residues 43-195) or pGEX-HMGB1) were transformed into BL21 (DE3) competent E. coli cells, and the cells incubated in LB medium with ampicillin at 37 °C until the OD600 reached 0.8. Protein expression was induced by adding 1 mM isopropyl-β-thiogalactopyranoside (IPTG) and incubating at 37 °C for 4 h. […]
ITC experiments were performed at 298 K with ITC-Buffer (50 mM phosphate [pH 7.0]) using a MicroCal iTC200 (Malvern Panalytical, Malvern, UK). […] Binding isotherms were analyzed using SEDPHAT [35]. The binding of AG205 to apo- or heme-PGRMC1 (100 μM) was analyzed using a concentration of 3 mM containing 1% DMSO. […]

The target of a further assay is T2, PGRMC1-PGRMC1 binding (Homo sapiens, UniProt O00264).
T2 construct: mammalian FLAG-tagged expression vector pCMV-FLAG-PGRMC1 (full-length); Endogenous PGRMC1 (25 kDa) was co-immunoprecipitated; expressed in transfected cells; host or cells: HCT116
T2 sequence (O00264 whole entry): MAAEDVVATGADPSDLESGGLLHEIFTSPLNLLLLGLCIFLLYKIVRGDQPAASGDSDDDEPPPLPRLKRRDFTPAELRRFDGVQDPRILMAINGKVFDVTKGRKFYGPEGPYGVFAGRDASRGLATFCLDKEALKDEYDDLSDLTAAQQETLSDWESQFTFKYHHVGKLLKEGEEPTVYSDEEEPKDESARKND
T2 sequence (O00264 whole entry): as above
Nature of the assay: Co-immunoprecipitation of endogenous PGRMC1 with FLAG-PGRMC1 in HCT116 cells. The format is cell-based. The following applies: HCT116, co-IP of endogenous PGRMC1 with FLAG-PGRMC1, GL 12 hr. The procedure: An expression vector of pCMV-3xFLAG-PGRMC1 or an empty vector was transfected into HCT116 cells or HuH7 cells using the transfection reagent Lipofectamine 2000 (Invitrogen). The cells were incubated overnight with either GL or GlucoGL. Cells were then lysed with NP40 lysis buffer (20 mM Tris-HCl [pH 7.5], 150 mM NaCl, and 1% NP40). The lysates were incubated with 10 μL of equilibrated anti-FLAG (M2) agarose for 60 min at room temperature. Bound proteins were washed three times and subjected to SDS-PAGE and visualized through western blotting using antibodies against FLAG, EGFR, and LDLR. For analysis of the endogenous PGRMC1-binding with FLAG-PGRMC1, HCT116 cells (1 × 10^7 cells) were treated with vehicle or 250 μM SA and/or 10 μM hemin for 48 h, and the cell lysates were co-immunoprecipitated with anti-FLAG (M2) agarose. Bound proteins (endogenous PGRMC1 and FLAG-tagged PGRMC1) were visualized through western blotting using antibody against PGRMC1.

A further assay concerns the target T3, PGRMC1 A147W (Homo sapiens, UniProt O00264, A147W).
T3 construct: human PGRMC1 intracellular domain residues 43-195; GST (N, cleaved yes); made in house; host or cells: E. coli BL21 (DE3)
Description: ITC binding of GL to PGRMC1 mutant A147W.
Excerpt: as §1
(§2) ITC experiments were performed at 298 K with ITC-Buffer (50 mM phosphate [pH 7.0]) using a MicroCal iTC200 (Malvern Panalytical, Malvern, UK). GL derivatives were dissolved in […] and titrated into 100 μM apo-PGRMC1, heme-bound-PGRMC1, or HMGB1 protein. Titration was performed by injecting 2 µL of the syringe solution at intervals of 120 s. Binding isotherms were analyzed using SEDPHAT [35]. The binding of AG205 to apo- or heme-PGRMC1 (100 μM) was analyzed using a concentration of 3 mM containing 1% DMSO. The binding affinities of GL derivatives for HMGB1 (80 µM) were analyzed using a concentration of 3 mM.

For the next assay, the target named is T4, PGRMC1 Q149F (Homo sapiens, UniProt O00264, Q149F).
T4 construct: human PGRMC1 intracellular domain residues 43-195; GST (N, cleaved yes); made in house; host or cells: E. coli BL21 (DE3)
T4 sequence (O00264 43-195 Q149F): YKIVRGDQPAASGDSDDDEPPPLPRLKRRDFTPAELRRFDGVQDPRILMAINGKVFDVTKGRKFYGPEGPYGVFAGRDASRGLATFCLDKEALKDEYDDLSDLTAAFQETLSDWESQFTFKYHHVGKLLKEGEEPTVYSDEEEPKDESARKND
Description: ITC binding of GL to PGRMC1 mutant Q149F.
Excerpt: as §1, §2

T3 sequence (O00264 43-195 A147W): as the sequence (O00264 43-195 Q149F) above, with A105W, F107Q counted along it
T1 sequence (O00264 43-195): as the sequence (O00264 43-195 Q149F) above, with F107Q counted along it

Usually Kd stands for a measure of binding affinity in units of concentration. The low end stands for a tighter complex, the high end for a looser complex. Consider `CC1(C)[C@@H](O[C@H]2O[C@H](C(=O)O)[C@@H](O)[C@H](O)[C@H]2O[C@@H]2O[C@H](C(=O)O)[C@@H](O)[C@H](O)[C@H]2O)CC[C@]2(C)[C@H]3C(=O)C=C4[C@@H]5C[C@@](C)(C(=O)O)CC[C@]5(C)CC[C@@]4(C)[C@]3(C)CC[C@@H]12` [Glycyrrhizin (GL), Glycyrrhizin], for which the “Binding to apo-PGRMC1” value on apo-PGRMC1 is given as “No Binding; also recorded: not to the apo-monomer form”. In addition, the PGRMC1-PGRMC1 binding result at PGRMC1-PGRMC1 binding is reported as “did not affect”. On PGRMC1 A147W, this compound showed a Kd of 158 µM, a TΔS of 2.10 K･kcal/mol, a ΔG of -5.19 kcal/mol and a ΔH of -3.09 kcal/mol. Also, on PGRMC1 Q149F, binding was characterised by a dissociation constant (Kd) of 403 µM, the TΔS is recorded as −10.62 K･kcal/mol and the ΔH is -14.37 kcal/mol.

These data come from PMC8269059, “Glycyrrhizin Derivatives Suppress Cancer Chemoresistance by Inhibiting Progesterone Receptor Membrane Component 1” (Cancers, 2021).
